Patent US20180140578A1, “METHODS AND COMPOSITIONS FOR THE DIAGNOSIS AND SELECTIVE TREATMENT OF CANCER” (Board of Regents of the University of Texas System, priority 2016, published 2018)
Like-named read-outs stand apart in the source and are kept apart here.

Legend:
[1] = molecular target: T1, DCAF15-3xFLAG and RBM39Δ150 (Homo sapiens, UniProt Q14498+Q66K64); assay: RBM39Δ150 pulldown assay; assay type: binding; conditions: wild type RBM39Δ150
T1 construct: Full-length cDNAs encoding CUL4A, CUL4B, DCAF15, and DDB1 were cloned into pLVX IRES Puro; made in house; host or cells: RBM39Δ150: Sf9 (baculovirus); DCAF15-3xFLAG: anti-FLAG beads from HCT-116 or 293T cells stably expressing it
T1 sequence (Q66K64 whole entry, stated change not applied): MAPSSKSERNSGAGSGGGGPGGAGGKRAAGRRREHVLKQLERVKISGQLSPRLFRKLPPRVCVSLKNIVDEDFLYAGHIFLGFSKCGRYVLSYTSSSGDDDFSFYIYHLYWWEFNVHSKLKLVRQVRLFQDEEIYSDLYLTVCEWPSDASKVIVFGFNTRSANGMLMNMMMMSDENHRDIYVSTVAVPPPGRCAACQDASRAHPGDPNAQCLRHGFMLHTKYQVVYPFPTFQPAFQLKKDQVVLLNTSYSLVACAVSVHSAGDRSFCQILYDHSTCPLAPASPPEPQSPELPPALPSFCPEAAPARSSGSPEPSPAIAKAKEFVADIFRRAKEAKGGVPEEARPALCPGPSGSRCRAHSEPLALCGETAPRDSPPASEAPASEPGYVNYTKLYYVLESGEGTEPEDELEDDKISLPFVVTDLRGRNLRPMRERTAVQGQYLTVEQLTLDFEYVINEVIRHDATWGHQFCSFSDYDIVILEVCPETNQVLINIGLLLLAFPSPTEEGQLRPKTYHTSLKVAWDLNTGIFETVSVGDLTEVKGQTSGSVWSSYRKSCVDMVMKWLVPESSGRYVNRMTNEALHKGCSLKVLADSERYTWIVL
T1 sequence (Q14498 151-530 limits assumed, stated change not applied): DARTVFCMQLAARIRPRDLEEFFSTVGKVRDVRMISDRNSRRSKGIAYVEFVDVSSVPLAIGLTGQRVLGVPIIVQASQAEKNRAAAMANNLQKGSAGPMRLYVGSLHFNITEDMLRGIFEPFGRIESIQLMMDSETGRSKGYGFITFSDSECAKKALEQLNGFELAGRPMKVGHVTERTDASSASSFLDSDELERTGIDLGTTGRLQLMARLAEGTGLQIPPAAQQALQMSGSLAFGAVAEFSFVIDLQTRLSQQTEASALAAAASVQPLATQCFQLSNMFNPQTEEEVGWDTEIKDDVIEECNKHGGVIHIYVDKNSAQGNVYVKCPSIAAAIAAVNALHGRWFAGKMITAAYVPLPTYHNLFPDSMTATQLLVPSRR
T1 sequence (Q16531 whole entry partner): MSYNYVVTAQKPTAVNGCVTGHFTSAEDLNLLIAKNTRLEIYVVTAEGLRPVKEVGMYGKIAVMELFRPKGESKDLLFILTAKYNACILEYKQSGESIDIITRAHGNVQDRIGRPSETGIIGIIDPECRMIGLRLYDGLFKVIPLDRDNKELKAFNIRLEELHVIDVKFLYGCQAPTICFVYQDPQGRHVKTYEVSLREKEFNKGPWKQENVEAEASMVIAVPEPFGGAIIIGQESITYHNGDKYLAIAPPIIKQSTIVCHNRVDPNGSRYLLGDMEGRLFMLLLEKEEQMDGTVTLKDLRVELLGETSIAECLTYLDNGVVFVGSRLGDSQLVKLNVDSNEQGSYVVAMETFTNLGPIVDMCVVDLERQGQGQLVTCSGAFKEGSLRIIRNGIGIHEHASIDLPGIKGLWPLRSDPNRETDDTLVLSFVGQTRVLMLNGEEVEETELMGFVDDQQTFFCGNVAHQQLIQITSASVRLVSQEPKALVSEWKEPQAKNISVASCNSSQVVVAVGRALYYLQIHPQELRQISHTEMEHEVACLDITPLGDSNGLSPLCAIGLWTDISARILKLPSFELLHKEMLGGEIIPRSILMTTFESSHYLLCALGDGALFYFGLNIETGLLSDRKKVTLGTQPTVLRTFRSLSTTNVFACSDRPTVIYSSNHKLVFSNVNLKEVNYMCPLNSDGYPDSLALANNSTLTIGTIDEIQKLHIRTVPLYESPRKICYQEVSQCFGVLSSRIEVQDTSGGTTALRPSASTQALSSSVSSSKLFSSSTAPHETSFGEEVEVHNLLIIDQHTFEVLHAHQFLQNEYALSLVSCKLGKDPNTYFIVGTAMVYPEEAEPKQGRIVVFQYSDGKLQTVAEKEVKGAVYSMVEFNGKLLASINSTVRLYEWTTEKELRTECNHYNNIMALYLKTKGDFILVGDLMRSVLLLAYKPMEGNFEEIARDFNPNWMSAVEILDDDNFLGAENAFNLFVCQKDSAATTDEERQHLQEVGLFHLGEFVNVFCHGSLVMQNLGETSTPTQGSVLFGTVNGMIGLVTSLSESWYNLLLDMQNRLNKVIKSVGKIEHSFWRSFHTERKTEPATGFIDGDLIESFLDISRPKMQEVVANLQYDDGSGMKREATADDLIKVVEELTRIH
Description: RBM39 lacking the first 150 amino acids after the start codon (RBM39Δ150) was cloned into the pFastBac1 (Life Technologies) vector. Site-directed Mutagenesis of RBM39 was performed using Q5 site-directed mutagenesis kit (NEB). DCAF15-GST (C-terminal GST tag) and DDB1 were also cloned into pFastBac1. The production of baculovirus was carried out following vendor's instructions. Protein was expressed in SF9 cells by infection with each protein specific baculovirus, and cells were harvested 48 hr later and frozen in liquid nitrogen. For purification of RBM39Δ150, frozen cells were pulverized by cryomill and resuspended in lysis buffer (40 mM Tris, pH 7.5, 225 mM NaCl, 1× […] Protease inhibitor). The lysate was passed through a 22 gauge needle 2 times followed by ultracentrifugation at 25000 rpm for 30 min. Clarified lysate was incubated with Ni-NTA agarose (Qiagen) for 30 min with rotation at 4° C. Resin and bound protein were washed with wash buffer 1 (40 mM Tris, pH 7.5, 225 mM NaCl) followed by wash buffer 2 (40 mM Tris, pH 7.5, 20 mM imidazole, 225 mM NaCl). Proteins were eluted with elution buffer (40 mM Tris, pH 7.5, 300 mM imidazole, 225 mM NaCl) and concentrated to 0.5 ml. Concentrated proteins were then fractionated on Superdex 200 Increase 10/300 GL (GE Healthcare). RBM39Δ150 and mutants eluted at 14.8 ml after injection and were stored at −80° C. in 40 mM Tris, pH 7.5, 225 mM NaCl. For purification of DCAF15-GST/DDB1, Sf9 cells co-infected with DCAF15-GST and DDB1 baculoviruses were lysed in PBS supplemented with 0.1% NP40, 1× […] Protease inhibitors, and 0.5 mM PMSF. The lysate was passed through a 22 gauge needle 2 times followed by centrifugation at 7000 rpm for 15 min. Clarified lysate was incubated with Glutathione Sepharose 4B resin (GE healthcare) for 30 min with rotation at 4° C. Resin was washed with PBS for three times before elution with 50 mM Tris, 10 mM glutathione, pH 8.
HCT-116 cells stably expressing DDB1-3xFLAG, CUL4A-3xFLAG, CUL4B-3xFLAG, or to DCAF15-3xFLAG were lysed in 1×PBS, 0.1% NP40, and 1× […] protease inhibitor (1 ml per […] plate). […]

RBM39-Nluc = molecular target: T2, RBM39-Nluc (Homo sapiens, UniProt Q14498+Q66K64); assay: RBM39-Nluc degradation by Nano-Glo luciferase assay; assay type: cell-based; conditions: H1155 RBM39-Nluc cells; read-out: decrease in RBM39-Nluc activity (IC50)
T2 construct: Homology directed repair facilitates tagging of endogenous RBM39 by AID, 3xFLAG, AcGFP, or Nanoluciferase; endogenous in cells; host or cells: H1155 RBM39-Nluc knock-in cells
Description: NanoLuc was knocked-in to the 3-prime end of the RBM39 gene using the procedure described above yielding H1155 RBM39-Nluc cells. […] Luminescence was recorded by EnVision multimode plate reader (Perkin Elmer). IC50 was determined with GraphPad Prism using baseline correction (by normalizing to DMSO control), the asymmetric (five parameter) equation and least squares fit.

[2] = test system: HCT-116 RBM39 G268V knock-in cells; assay: Cell viability assay, RBM39 G268V knock-in; assay type: cell-based, human; conditions: at concentrations as high as 50 μM
Description: (§1) 12-point dose responses were performed on 96-well assay plates with cell plating (1500-4000 cell per well) on day 1, compound addition on day 2, and survival measurement on day 5. Compounds were diluted in DMSO before adding to the cells. Final DMSO concentration was 0.5%. Cell survival assay was performed using CellTiter-Glo Luminescent Cell Viability Assay kit (Promega) that measures cellular ATP content. Luminescence was recorded by EnVison multimode plate reader (Perkin Elmer). IC50 was determined with GraphPad Prism using baseline correction (by normalizing to DMSO control), the asymmetric (five parameter) equation and least squares fit.
sgRNA targeting RBM39 (5′-[…]-3′) was cloned into the pSpCas9(BB)-2A-Puro (PX459) vector (Addgene 62988). For RBM39 G268V knock-in, 1 million HCT-116 or H1155 cells were nucleofected (using 4D-Nucleofector, Lonza) with PX459-RBM39 sgRNA and the single-stranded oligo 5′-[…] […] […] […]-3′ (SEQ ID NO: 13).

HCT-116 cells = assay: Cell viability assay (CellTiter-Glo); assay type: cell-based, human; conditions: for IC50: read-out: concentration required to reduce the viability by 50% (IC50), parental HCT-116 cells; for toxicity to HCT-116 cells: at concentrations as high as 50 μM
Description: The identity for all human cell lines in this study was confirmed by short tandem repeat (STR) analysis. In addition, all human cell lines were confirmed to be mycoplasma free using a PCR based assay (Genatlantis). HCT-116 cells (ATCC) were grown in DMEM medium with 10% FBS and 2 mM L-glutamine. Lenti-X 293T cells (Clontech) were cultured in DMEM medium with 10% FBS and 2 mM L-glutamine. H1155 cells (a gift from Adi Gazdar and John Minna, UT Southwestern) were cultured in RPMI media with 5% FBS and 2 mM L-glutamine. SF9 cells (a gift from Hongtao Yu, UT Southwestern) were cultured in SF900 II serum free media (Life Technologies).
as §1

[3] = test system: DCAF15-3xFLAG and mutant RBM39Δ150 (M265L, E271Q, P272S); assay: RBM39Δ150 pulldown assay, mutant RBM39; assay type: binding, human; conditions: M265L, E271Q, P272S
Description: RBM39 lacking the first 150 amino acids after the start codon (RBM39Δ150) was cloned into the pFastBac1 (Life Technologies) vector. Site-directed Mutagenesis of RBM39 was performed using Q5 site-directed mutagenesis kit (NEB). DCAF15-GST (C-terminal GST tag) and DDB1 were also cloned into pFastBac1. The production of baculovirus was carried out following vendor's instructions. Protein was expressed in SF9 cells by infection with each protein specific baculovirus, and cells were harvested 48 hr later and frozen in liquid nitrogen. For purification of RBM39Δ150, frozen cells were pulverized by cryomill and resuspended in lysis buffer (40 mM Tris, pH 7.5, 225 mM NaCl, 1× […] Protease inhibitor). The lysate was passed through a 22 gauge needle 2 times followed by ultracentrifugation at 25000 rpm for 30 min. Clarified lysate was incubated with Ni-NTA agarose (Qiagen) for 30 min with rotation at 4° C. Resin and bound protein were washed with wash buffer 1 (40 mM Tris, pH 7.5, 225 mM NaCl) followed by wash buffer 2 (40 mM Tris, pH 7.5, 20 mM imidazole, 225 mM NaCl). Proteins were eluted with elution buffer (40 mM Tris, pH 7.5, 300 mM imidazole, 225 mM NaCl) and concentrated to 0.5 ml. Concentrated proteins were then fractionated on Superdex 200 Increase 10/300 GL (GE Healthcare). […]

RBM39-AID = assay: Auxin induced degradation of RBM39 (western blotting); assay type: cell-based, human; conditions: cells that express both RBM39-AID and TIR1
Description: (§2) TIR1 cDNA with a V5 tag sequence appended to its 3′ end was cloned into pLVX IRES zsGreenland packaged into lentivirus to infect both parental HCT-116 cells and RBM39-AID-3xFLAG knock-in cells. Following lentiviral delivery of TIR1, cells with top 5% strongest zsGreen expression were sorted by FACS. TIR1-V5 expression was confirmed by western blot with HRP conjugated anti-VS (Sigma-Aldrich, V2260, 1:5000). For examination of RBM39-AID-3xFLAG degradation, cells were treated with 500 μM IAA for 4 hours before being lysed for western blotting. For IAA dose response curves, cells were treated with various concentrations of IAA for 72 hours and ATP levels were quantified using Cell-Titer Glo (Promega).

[4] = test system: HCT-116 cells expressing RBM39-AID and TIR1; assay: IAA dose response, cell viability (Cell-Titer Glo); assay type: cell-based, human; conditions: cells that express both RBM39-AID and TIR1
Description: as §2

[5] = test system: indisulam resistant HCT-116 clones; assay: Cell viability assay, indisulam resistant clones; assay type: cell-based, human; conditions: six indisulam resistant clones
Description: (§3) The methods for generating a population of barcoded HCT-116 cells were described before (20). […] Clones that appeared after the selection was then expanded and barcode genotyped to identify six clones with unique barcodes. […] Source data for exome sequencing data is available under NCBI SRA accession SRP068238. Bortezomib resistant clones were isolated by selection with 5 nM bortezomib, and MLN4924 resistant clones with 40 nM MLN4924.
as §1

[6] = test system: RBM39 in PSMB5 A108T HCT-116 cells; assay: Block of indisulam dependent RBM39 degradation, bortezomib resistant line; assay type: cell-based, human; conditions: PSMB5 A108T cell line
Text: (§4) (B) RBM39-AID is degraded in the presence of TIR1 and IAA in HCT-116 cells. (C) IAA and TIR1 dependent degradation of RBM39-AID results in cell death. Error bars represent standard errors of the mean (SEM) (n=3). […] The effect of bortezomib is attenuated in a bortezomib resistant cell line. […] The effect of MLN4924 is abrogated in an MLN4924 resistant cell line.
as §3
(§5) Proteins were resolved on SDS-PAGE and transferred to 0.5 μm nitrocellulose membranes. Membranes were blocked in 5% milk TBST for 30 min, and then anti-RBM39 antibodies (HPA001591, Sigma-Aldrich) were added in 5% milk (1:5000) and incubated on a shaker overnight at 4° C. After three 5 min washes with TBST, membranes were incubated with HRP-conjugated goat anti-rabbit secondary antibody (Bio-Rad) for 2 hr at room temperature. After three 5 min washes with TBST, membranes were developed with ECL (enhanced chemiluminescence) substrates.

[7] = test system: RBM39 in parental HCT-116 cells; assay: Block of indisulam dependent RBM39 degradation, parental cells; assay type: cell-based, human
Text: as §4, §5

[8] = test system: RBM39 in UBA3 A171T HCT-116 cells; assay: Block of indisulam dependent RBM39 degradation, MLN4924 resistant line; assay type: cell-based, human; conditions: cells harboring UBA3 A171T mutation
Text: as §4, §3, §5

Compound: O=C(NS(=O)(=O)c1ccc(Br)s1)c1ccc(Cl)cc1Cl [tasisulam]
- recruitment of RBM39Δ150 to DCAF15 [1]: recruit RBM39Δ150 to DCAF15 in a dose-dependent manner
- IC50 (RBM39-Nluc): 5.6 µM
- sensitivity of cell line carrying RBM39 G268V [2]: insensitive
- IC50 (HCT-116 cells): 6.5 µM
- recruitment of indisulam-resistant mutants of RBM39 to DCAF15 [3]: not effectively recruited

Compound: O=C(O)Cc1c[nH]c2ccccc12 [IAA, 3-indoleacetic acid]
- RBM39 levels (RBM39-AID): decrease in RBM39 levels
- cell viability [4]: loss in cell viability

Compound: CC1(C)O[C@@H]2[C@@H](CO[C@@]3(COS(N)(=O)=O)OC(C)(C)O[C@@H]23)O1 [topirimate, topiramate]
- toxicity to HCT-116 cells (HCT-116 cells): non-toxic

Compound: CC(=O)Nc1nnc(S(N)(=O)=O)s1 [acetazolamide]
- toxicity to HCT-116 cells (HCT-116 cells): non-toxic

Compound: CC(=O)O[C@H]1C(=O)[C@@]2(C)[C@H]([C@H](OC(=O)c3ccccc3)[C@]3(O)C[C@H](OC(=O)[C@H](O)[C@@H](NC(=O)c4ccccc4)c4ccccc4)C(C)=C1C3(C)C)[C@]1(OC(C)=O)CO[C@@H]1C[C@@H]2O [paclitaxel]
- resistance of indisulam resistant clones to paclitaxel [5]: None of the clones were resistant

Compound: CC(C)C[C@H](NC(=O)[C@H](Cc1ccccc1)NC(=O)c1cnccn1)B(O)O [bortezomib]
- level of bortezomib required for comparable rescue of RBM39 levels, relative to parental [6]: 10 fold
- concentration of bortezomib that blocked the degradation of RBM39 in response to indisulam ([7]; parental cells, 2 h pretreatment, then 6 h 2 μM indisulam): 10 nM

Compound: Nc1ccc(S(=O)(=O)Nc2cnc3c(Cl)cccc3n2)cc1 [CQS, chloroquinoxaline sulfonamide]
- DC50 (RBM39-Nluc): 2.4 µM
- IC50 (HCT-116 cells; Homo sapiens): 7.1 µM

Compound: NS(=O)(=O)OC[C@@H]1C[C@@H](n2ccc3c(N[C@H]4CCc5ccccc54)ncnc32)C[C@@H]1O [MLN4924]
- effect on degradation of RBM39 in response to indisulam [8]: did not observe this effect
- effect on degradation of RBM39 in response to indisulam ([7]; HCT-116 cells): blocked the degradation of RBM39
